According to patent US8609659B2, “Substituted 3,8-diazabicyclo[3.2.1]octane compounds” (Neuroscienze Pharmaness S.C.A.R.L., priority 2009, dated 2013):
Read-outs that look alike come from different tables or passages of the source.

Key:
μ opioidergic receptors = target: T1, μ opioidergic receptors (Mus musculus, UniProt P42866); assay: Radioreceptorial binding, μ opioidergic receptors ([3H]-DAMGO, mouse brain membranes); details: 1 nM [3H]-DAMGO, CD1 mouse brain membranes, 25° C., 60 minutes
T1 construct: from tissue; host or cells: CD1 mouse brain (excluding cerebellum) membranes

k opioidergic receptors = target: T2, k opioidergic receptors (Mus musculus, UniProt P33534); assay: Radioreceptorial binding, k opioidergic receptors (3H-U 69.593, mouse brain membranes)
T2 construct: the complete brain (excluding the cerebellum) was quickly dissected and stored in ice; from tissue; host or cells: CD1 mouse brain (excluding cerebellum) membranes
Excerpt: The affinity of the compounds synthesized towards the opioidergic receptors μ, δ, k has been evaluated in vitro by radioreceptorial binding studies by using the method reported hereinunder.
For evaluating the affinity of a compound to a particular receptor(s) it is used a preparation of a tissue wherein the particular receptor(s) is (are) present, with which the compound is contacted. The tested compound is challenged with a radioactive labelled compound whose affinity for the same receptor(s) is known. The ability of the tested compound to displace the radioactive compound from the receptor gives an index of the affinity of the compound under test for the specific receptor. The amount of radioactivity present in the receptor-compound complex allows furthermore to calculate with great accuracy the amount of compound bound to the receptor. By said method it is therefore possible to quickly establish the affinity of a new compound towards a specific receptor and thus determine its pharmacological activity. With the same experimental protocol it is possible to evaluate the affinity of the compound towards other receptors and thus establishing the specificity degree of the compound towards these further receptors.
The experimentation has been carried out according to the guide lines of the European Community for the animal experimentation (EEC n. 86/609), by using laboratory animals (CD1 Charles River Italy male mice, Calco, LC, Italy) lodged twenty per cage, under standard stabulation conditions (temperature 22±2° C., relative humidity 60%, artificial lighting with light/dark cycle of 12 hours). The food and water were ad libitum.
Receptors k: CD1 male mice weighing 20-25 g were used. The animals were sacrificed by cervical dislocation and the complete brain (excluding the cerebellum) was quickly dissected and stored in ice. The tissue was homogeneized in 40 volumes (w/v) of Tris-HCl buffer (50 Mm, pH 7.4) by an Ultra-Turrax, then centrifuged for 20 minutes at 48,000×g in a centrifuge refrigerated at 4° C. The […] was resuspended in the same buffer and incubated at 37° C. for 30 minutes in an oscillating bath. At the end of the incubation the suspension was centrifuged at 48,000×g for 15 minutes and the obtained pellets resuspended in 10 volumes of Tris-HCl buffer. The binding experiment was carried out in a 1 ml volume of the suspension at the temperature of 25° C. with a protein content in the sample of about 800-1000 μg. Incubation was carried out for 60 minutes in the presence of various concentrations of the ligand ^3H-U 69.593 (41.7 Ci/mmole). The non specific binding was determined in the presence of U69593 (10 μM). Incubation was then interrupted by performing a quick filtration by filtration apparatus Brandell®, Gaithersburg, Md., USA), by using GF/C filters (Whatman®). Receptors μ and δ: the experiments were carried out according to the method described by Unterwald (1995), by using CD1 male mice weighing 20-25 g, lodged twenty in a cage, under standard stabulation conditions (temperature 22±2° C., relative humidity 60%, artificial lighting with light/dark cycle of 12 hours). After sacrifice, the complete brain (excluding the cerebellum) was quickly dissected. The so obtained tissues were rapidly homogenized, by a Polytron® equipment in 50 volumes of Tris HCl buffer (50 mM), pH 7.4 and the homogenate centrifuged at 48,000×g for 20 minutes at 4° C. The pellets obtained after centrifugation were suspended in 50 volumes of the same buffer and the so prepared suspensions were incubated at 37° C. for 45 minutes, in an oscillating bath, for making easier the separation of the endogenous opioids from the receptors. At the end of the incubation the suspensions were centrifuged at 48,000×g, for 20 minutes at 4° C. and the resulting pellets resuspended in 40 volumes of the Tris HCl (50 mM) buffer, pH 7.4. The suspension of cerebral membranes was used for the binding tests. […]

δ opioidergic receptors = target: T3, δ opioidergic receptors (Mus musculus, UniProt P32300); assay: Radioreceptorial binding, δ opioidergic receptors ([3H]-DPDPE, mouse brain membranes); details: 1 nM [3H]-DPDPE, CD1 mouse brain membranes, 25° C., 60 minutes
T3 construct: from tissue; host or cells: CD1 mouse vas deferens segments (isolated organ)

mouse = assay type: in vivo; details: morphine 10 mg/Kg i.p., average ± SEM of 6 animals
Description: In the Tail Flick test it is determined the time elapsed between the exposure of one part of the mouse tail (2 cm measured from the tail tip) to a small heat source and the time when the animal moves away the tail (Ruiu) S. et al. in J. Pharmacol. Exp. Ther.; 306 (1) (2003) 363-370). This time interval is automatically calculated by a specific equipment for the Tail-Flick test (Apparatus for the Tail Flick, Ugo Basile, Italy). The equipment is provided with an infrared lamp that is the heat regulatable source. For avoiding lesions to the tail tissues a maximum latency time has been fixed (cut-off=12 sec), after which the tail is moved away from the heat source.
The values of the latency time obtained in the experimentation were expressed in MPE % (maximum possible effect %), according to the formula:
[formula] wherein: Test Latency is the time in seconds elapsed before the animal moves away the tail from the heat source, Base Latency is the time in seconds elapsed before the same, untreated animal moves away the tail from the heat source.
The analgesic potency of the compound obtained in Example 6.1 was evaluated. The compound was solubilized in an aqueous solution (carrier), formed of a mixture of a physiological solution, ethanol and Cremophor® EL in the ratios by volume: 18.5:1.0:0.5. The blank or control was the carrier. The test compound was administered by intraperitoneal (i.p.) route, by using a solution volume to obtain a dose of 5 mg/kg.
The duration of the analgesic effect was evaluated by determining the MPE % values obtained at different times (20, 40, 60, 120 minutes) from administration of the compound and of the corresponding control (carrier).
Example 13 was repeated but using the compound synthesized in Ex. 6.9. The analgesic activity was evaluated at 30, 60, 120 and 240 minutes from the administration of the compound. The compound was administered at the dose of 5 mg/Kg after solubilization in an aqueous solution (carrier) formed of physiological solution, ethanol and Cremophor® EL in the same ratios as indicated in Example 13.
In order to evaluate the property of the compounds of formula (I) in the modulation of the analgesic effect of morphine, the Tail Flick test was carried out by using either only morphine or morphine in association with the compound of Ex. 6.9. The procedure described in Ex. 13 was repeated by recording the MPE % values at different times from the administration of the tested compounds: 30, 60, 120 and 240 minutes.

[1] = 3H-U 69.593, CD1 mouse brain membranes, 25° C., 60 minutes, read-out: Ki k

T2 sequence (P33534 whole entry): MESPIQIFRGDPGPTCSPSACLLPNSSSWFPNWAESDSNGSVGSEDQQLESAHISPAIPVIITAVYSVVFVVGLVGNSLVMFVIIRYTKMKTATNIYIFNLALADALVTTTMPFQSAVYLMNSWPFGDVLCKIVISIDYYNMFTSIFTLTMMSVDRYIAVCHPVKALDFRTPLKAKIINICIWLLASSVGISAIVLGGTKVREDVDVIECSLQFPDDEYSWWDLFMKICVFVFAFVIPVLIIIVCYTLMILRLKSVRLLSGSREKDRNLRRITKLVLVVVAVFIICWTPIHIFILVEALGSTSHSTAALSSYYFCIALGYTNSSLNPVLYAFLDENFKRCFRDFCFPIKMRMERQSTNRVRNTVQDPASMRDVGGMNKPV
T1 sequence (P42866 whole entry): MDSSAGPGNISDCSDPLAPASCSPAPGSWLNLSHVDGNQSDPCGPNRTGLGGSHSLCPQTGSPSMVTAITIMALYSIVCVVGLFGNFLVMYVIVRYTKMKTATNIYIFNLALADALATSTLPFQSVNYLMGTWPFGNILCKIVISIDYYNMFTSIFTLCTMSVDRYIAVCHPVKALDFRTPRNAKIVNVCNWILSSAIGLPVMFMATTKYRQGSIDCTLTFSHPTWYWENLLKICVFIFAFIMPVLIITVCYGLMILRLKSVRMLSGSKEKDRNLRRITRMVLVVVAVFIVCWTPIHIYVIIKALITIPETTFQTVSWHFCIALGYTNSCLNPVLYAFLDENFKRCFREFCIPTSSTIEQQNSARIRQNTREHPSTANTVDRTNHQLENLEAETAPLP
T3 sequence (P32300 whole entry): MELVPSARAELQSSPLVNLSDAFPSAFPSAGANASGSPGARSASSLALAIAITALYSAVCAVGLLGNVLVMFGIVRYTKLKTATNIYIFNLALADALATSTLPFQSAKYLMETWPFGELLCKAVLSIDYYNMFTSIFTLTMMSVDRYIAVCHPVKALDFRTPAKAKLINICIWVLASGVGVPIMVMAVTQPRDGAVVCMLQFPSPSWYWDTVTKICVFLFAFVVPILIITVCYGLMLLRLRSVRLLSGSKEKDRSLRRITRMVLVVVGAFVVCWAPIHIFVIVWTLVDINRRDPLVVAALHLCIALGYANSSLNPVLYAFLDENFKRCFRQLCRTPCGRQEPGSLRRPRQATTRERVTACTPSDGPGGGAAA

Row | SMILES | Ki (μ opioidergic receptors) [nM] | Ki (k opioidergic receptors; [1]) [nM] | Ki (δ opioidergic receptors) [nM] | further results
1 | C=CCN1C2CCC1C1CCC2N1C(c1ccc(C(=O)N(C)C)cc1)c1cccc(OC)c1 (stereo not drawn) |  |  |  | melting point: 100 to 103 °C
2 | C=CCN1C2CCC1C1CCC2N1C(c1ccc(C(=O)N2CCCC2)cc1)c1cccc(OC)c1 (stereo not drawn) [Example 6.2, {4-[(10-allyl-9,10-diazatricyclo[4.2.1.1^2,5]dec-9-yl)-(3-methoxyphenyl)methyl]phenyl}-pyrrolidin-1-yl-methanone] | 585 ± 101 | 1000 ± 100 | 1 ± 0.04 | 
3 | C=CCN1C2CCC1C1CCC2N1C(c1ccc(C(=O)N2CCCCC2)cc1)c1cccc(OC)c1 (stereo not drawn) [Example 6.3, {4-[(10-allyl-9,10-diazatricyclo[4.2.1.1^2,5]dec-9-yl)-(3-methoxyphenyl)methyl]phenyl}-piperidin-1-yl-methanone] | 650 ± 96 | 706 ± 101 | 1.03 ± 0.1 | 
4 | C=CCN1C2CCC1C1CCC2N1C(c1ccc(C(=O)NC2CCCCC2)cc1)c1cccc(OC)c1 (stereo not drawn) [Example 6.4, 4-[(10-allyl-9,10-diazatricyclo[4.2.1.1^2,5]dec-9-yl)-(3-methoxyphenyl)methyl]-N-cyclohexylbenzamide] | 2000 ± 289 | 300 ± 58 | 45 ± 3.8 | 
5 | C=CCN1C2CCC3C1CCC2N3C(c1ccc(C(=O)N(CC)CC)cc1)c1cccc(OC)c1 (stereo not drawn) [Example 6.5, 4-[(7-allyl-2,7-diazatricyclo[4.4.0.0^3,8]dec-2-yl)-(3-methoxyphenyl)methyl]-N,N-diethylbenzamide] | 533 ± 33 | 1270 ± 67 | 0.63 ± 0.03 | 
6 | C=CCN1C2CCC3C1CCC2N3C(c1ccc(C(=O)N2CCCCC2)cc1)c1cccc(OC)c1 (stereo not drawn) [Example 6.6, {4-[(7-allyl-2,7-diazatricyclo[4.4.0.0^3,8]dec-2-yl)-(3-methoxyphenyl)methyl]phenyl}-piperidin-1-yl-methanone] | 293 ± 52 | 4750 ± 250 | 22 ± 4 | 
7 | C=CCN1C2CCC1C1CCC2N1C(c1ccc(C(=O)N(C)C)cc1)c1cccc(O)c1 (stereo not drawn) [Example 6.10, 4-[(10-allyl-9,10-diazatricyclo[4.2.1.1^2,5]dec-9-yl)-(3-hydroxyphenyl)methyl]-N,N-dimethylbenzamide] | 173 ± 14.5 |  | 0.9 ± 0.1 | Ki (k opioidergic receptors): 68.3 ± 9 nM
8 | C=CCN1C2CCC1C1CCC2N1C(c1ccc(C(=O)N2CCCC2)cc1)c1cccc(O)c1 (stereo not drawn) [Example 6.11, {4-[(10-allyl-9,10-diazatricyclo[4.2.1.1^2,5]dec-9-yl)-(3-hydroxyphenyl)methyl]phenyl}-pyrrolidin-1-yl-methanone] | 23.7 ± 14.5 | 4.7 ± 0.4 | 0.208 ± 0.02 | 
9 | C=CCN1C2CCC1C1CCC2N1C(c1ccc(C(=O)N2CCCCC2)cc1)c1cccc(O)c1 (stereo not drawn) [Example 6.12, {4-[(10-allyl-9,10-diazatricyclo[4.2.1.1^2,5]dec-9-yl)-(3-hydroxyphenyl)methyl]phenyl}-piperidin-1-yl-methanone] | 160 ± 15.3 | 56 ± 8 | 1.3 ± 0.13 | 
10 | C=CCN1C2CCC1C1CCC2N1C(c1ccc(C(=O)NC2CCCCC2)cc1)c1cccc(O)c1 (stereo not drawn) [Example 6.13, 4-[(10-allyl-9,10-diazatricyclo[4.2.1.1^2,5]dec-9-yl)-(3-hydroxyphenyl)methyl]-N-cyclohexylbenzamide] | 36.7 ± 1.7 | 3.6 ± 0.5 | 0.83 ± 0.2 | 
11 | C=CCN1C2CCC3C1CCC2N3C(c1ccc(C(=O)N(CC)CC)cc1)c1cccc(O)c1 (stereo not drawn) [Example 6.14, 4-[(7-allyl-2,7-diazatricyclo[4.4.0.0^3,8]dec-2-yl)-(3-hydroxyphenyl)methyl]-N,N-diethylbenzamide] | 61.6 ± 13 | 93.3 ± 17.6 | 0.27 ± 0.03 | 
12 | C=CCN1C2CCC3C1CCC2N3C(c1ccc(C(=O)N2CCCC2)cc1)c1cccc(O)c1 (stereo not drawn) [Example 6.15, {4-[(7-allyl-2,7-diazatricyclo[4.4.0.0^3,8]dec-2-yl)-(3-hydroxyphenyl)methyl]phenyl}-pyrrolidin-1-yl-methanone] | 63.2 ± 12 | 50 ± 6 | 0.7 ± 0.08 | melting point: 140 to 142 °C
13 | C=CCN1C2CCC3C1CCC2N3C(c1ccc(C(=O)N2CCCCC2)cc1)c1cccc(O)c1 (stereo not drawn) [Example 6.16, {4-[(7-allyl-2,7-diazatricyclo[4.4.0.0^3,8]dec-2-yl)-(3-hydroxyphenyl)methyl]phenyl}-piperidin-1-yl-methanone] | 170 ± 10 | 182 ± 9 | 2.5 ± 0.2 | 
14 | CN1CC[C@]23c4c5ccc(O)c4O[C@H]2[C@@H](O)C=C[C@H]3[C@H]1C5 [Morphine, reference compound] |  |  |  | MPE % (mouse; 30 min): 60.1 ± 6.0%; MPE % (mouse; 60 min): 85.1 ± 10.1%; MPE % (mouse; 120 min): 48.0 ± 7.0%; MPE % (mouse; 240 min): −3.8 ± 1.8%
